Reference: patent publication US10577363B2, “Substituted piperidine compounds” (EPIZYME, INC., priority 2014, dated 2020)

Legend:
[1] = target: T1, SMYD3 (Homo sapiens (Human), UniProt Q9H7B4); assay: SMYD3 cell assay (Trimethyl-MEKK2 In-Cell Western in 293T/17 cells); format: cell-based; details: read-out: SMYD3 Cell IC50*
How it was run: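 In-Cell Western readout: methanol-fixed cells stained for trimethyl-MEKK2 and flag tag, ratio per well normalized to DMSO and background controls.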

[2] = target: T1, SMYD3; assay: SMYD3 biochemical assay (SPA, 3H-SAM methylation of MEKK2 protein substrate); details: read-out: SMYD3 Biochem IC50*
How it was run: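 Enzyme: untagged full-length human SMYD3 from E. coli; substrate GST-tagged MEKK2 from insect cells. Buffer 25 mM Tris-Cl pH 8.0, 1 mM TCEP, 0.005% BSG/Tween 20. 30 min compound–enzyme preincubation at RT; 3H-SAM/MEKK2 start; stop with cold SAM (100 uM final); SPA readout in cpm.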

T1 sequence (Q9H7B4 whole entry): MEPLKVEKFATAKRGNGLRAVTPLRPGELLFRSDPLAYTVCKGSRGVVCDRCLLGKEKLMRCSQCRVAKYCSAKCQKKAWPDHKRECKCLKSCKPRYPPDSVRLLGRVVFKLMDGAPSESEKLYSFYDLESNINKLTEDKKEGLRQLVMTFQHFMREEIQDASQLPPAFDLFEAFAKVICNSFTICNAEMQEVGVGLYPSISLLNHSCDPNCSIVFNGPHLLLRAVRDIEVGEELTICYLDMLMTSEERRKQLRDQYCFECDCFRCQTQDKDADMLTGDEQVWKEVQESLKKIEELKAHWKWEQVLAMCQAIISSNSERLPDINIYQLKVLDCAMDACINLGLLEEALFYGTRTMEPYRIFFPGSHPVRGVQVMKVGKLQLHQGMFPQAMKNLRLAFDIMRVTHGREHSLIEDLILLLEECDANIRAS

SMILES | IC50 [1] | IC50 [2]
O=C(N[C@H]1C[C@H]2CC[C@@H](C1)N2S(=O)(=O)[C@H]1CC[C@H](NCCO)CC1)c1cc(C2CC2)on1 [compound 768, 5-cyclopropyl-N-((1R,3R,5S)-8-(((1R,4R)-4-((2-hydroxyethyl)amino)cyclohexyl)sulfonyl)-8-azabicyclo[3.2.1]octan-3-yl)isoxazole-3-carboxamide] | 34.7 nM | 0.71 nM
O=C(N[C@H]1C[C@H]2CC[C@@H](C1)N2S(=O)(=O)N1CC2(CCN(CCc3ccccc3)CC2)C1)c1cc(C2CC2)on1 [compound 769, 5-cyclopropyl-N-((1R,3r,5S)-8-((7-phenethyl-2,7-diazaspiro[3.5]nonan-2-yl)sulfonyl)-8-azabicyclo[3.2.1]octan-3-yl)isoxazole-3-carboxamide] | 17.9 nM | 0.76 nM
CN(C)[C@H]1CC[C@@H](S(=O)(=O)N2[C@@H]3CC[C@H]2C[C@@H](NC(=O)c2cc(C4CC4)on2)C3)CC1 [compound 771, 5-cyclopropyl-N-((1R,3R,5S)-8-(((1s,4S)-4-(dimethylamino)cyclohexyl)sulfonyl)-8-azabicyclo[3.2.1]octan-3-yl)isoxazole-3-carboxamide] | 25.6 nM | 0.94 nM
C[C@H]1C[C@@H](NC(=O)c2cc(C3CC3)on2)CCN1S(=O)(=O)C[C@H]1CC[C@H](N)C1 [compound 772, N-((2S,4S)-1-((((1S,3S)-3-aminocyclopentyl)methyl)sulfonyl)-2-methylpiperidin-4-yl)-5-cyclopropylisoxazole-3-carboxamide] | 32.7 nM | 0.95 nM
C[C@H]1C[C@@H](NC(=O)c2cc(C3CC3)on2)CCN1S(=O)(=O)[C@H]1CC[C@H](N)CC1 [compound 773, N-((2S,4S)-1-(((1r,4S)-4-aminocyclohexyl)sulfonyl)-2-methylpiperidin-4-yl)-5-cyclopropylisoxazole-3-carboxamide] | 17.7 nM | 1.03 nM
C[C@H]1C[C@@H](NC(=O)c2cc(C3CC3)on2)CCN1S(=O)(=O)N1CCC(C)(N)CC1 [compound 774, N-((2S,4S)-1-((4-amino-4-methylpiperidin-l-yl)sulfonyl)-2-methylpiperidin-4-yl)-5-cyclopropylisoxazole-3-carboxamide] | 25.6 nM | 1.04 nM
CC[C@@H]1C[C@H](NC(=O)c2cc(C3CC3)on2)CCN1S(=O)(=O)CC1CCN(C)CC1 [compound 775, 5-cyclopropyl-N-((2R,4R)-2-ethyl-1-(((1-methylpiperidin-4-yl)methyl)sulfonyl)piperidin-4-yl)isoxazole-3-carboxamide] | 14.4 nM | 1.07 nM
O=C(N[C@H]1C[C@H]2CC[C@@H](C1)N2S(=O)(=O)[C@H]1CC[C@H](NCc2ccccc2)CC1)c1cc(C2CC2)on1 [compound 776, N-((1R,3R,5S)-8-(((1r,4R)-4-(benzylamino)cyclohexyl)sulfonyl)-8-azabicyclo[3.2.1]octan-3-yl)-5-cyclopropylisoxazole-3-carboxamide] | 27.6 nM | 1.12 nM
CCC[C@@H]1C[C@H](NC(=O)c2cc(C3CC3)on2)CCN1S(=O)(=O)CC1CCN(C)CC1 [compound 777, 5-cyclopropyl-N-((2R,4R)-1-(((1-methylpiperidin-4-yl)methyl)sulfonyl)-2-propylpiperidin-4-yl)isoxazole-3-carboxamide] | 17 nM | 1.14 nM
O=C(N[C@H]1C[C@H]2CC[C@@H](C1)N2S(=O)(=O)CC1CCN(Cc2ccc(F)cc2)CC1)c1cc(C2CC2)on1 [compound 778, 5-cyclopropyl-N-((1R,3r,5S)-8-(((1-(4-fluorobenzyl)piperidin-4-yl)methyl)sulfonyl)-8-azabicyclo[3.2.1]octan-3-yl)isoxazole-3-carboxamide] | 44.8 nM | 1.18 nM
CCc1cc(C(=O)N[C@H]2C[C@H]3CC[C@@H](C2)N3S(=O)(=O)CC2CCN(CCCC(F)(F)F)CC2)no1 [compound 779, 5-ethyl-N-((1R,3r,5S)-8-(((1-(4,4,4-trifluorobutyl)piperidin-4-yl)methyl)sulfonyl)-8-azabicyclo[3.2.1]octan-3-yl)isoxazole-3-carboxamide] | 28.1 nM | 1.2 nM
C[C@H]1C[C@@H](NC(=O)c2cc(C3CC3)on2)CCN1S(=O)(=O)N1CCC(N(C)CCO)CC1 [compound 780, 5-cyclopropyl-N-((2S,4S)-1-((4-((2-hydroxyethyl)(methyl)amino)piperidin-1-yl)sulfonyl)-2-methylpiperidin-4-yl)isoxazole-3-carboxamide] | 23.9 nM | 1.21 nM
CCCN1CCC(CS(=O)(=O)N2[C@@H]3CC[C@H]2C[C@@H](NC(=O)c2cc(C4CC4)on2)C3)CC1 [compound 781, 5-cyclopropyl-N-((1R,3r,5S)-8-(((1-propylpiperidin-4-yl)methyl)sulfonyl)-8-azabicyclo[3.2.1]octan-3-yl)isoxazole-3-carboxamide] | 27 nM | 1.22 nM
CN1CCC2(CC1)CN(S(=O)(=O)N1[C@@H]3CC[C@H]1C[C@@H](NC(=O)c1cc(C4CC4)on1)C3)C2 [compound 782, 5-cyclopropyl-N-((1R,3r,5S)-8-((7-methyl-2,7-diazaspiro[3.5]nonan-2-yl)sulfonyl)-8-azabicyclo[3.2.1]octan-3-yl)isoxazole-3-carboxamide] | 30.1 nM | 1.23 nM
C[C@H]1C[C@@H](NC(=O)c2cc(C3CC3)on2)CCN1S(=O)(=O)C1CCC(CN)C1 (stereo partly drawn) [compound 783, N-((2S,4S)-1-((3-(aminomethyl)cyclopentyl)sulfonyl)-2-methylpiperidin-4-yl)-5-cyclopropylisoxazole-3-carboxamide] | 51.7 nM | 1.24 nM
C[C@H]1C[C@@H](NC(=O)c2cc(C3CC3)on2)CCN1S(=O)(=O)C[C@@H]1CC[C@@H](N)C1 [compound 784, N-((2S,4S)-1-((((1R,3R)-3-aminocyclopentyl)methyl)sulfonyl)-2-methylpiperidin-4-yl)-5-cyclopropylisoxazole-3-carboxamide] | 39.3 nM | 1.29 nM
CCN1CCC(CS(=O)(=O)N2[C@@H]3CC[C@H]2C[C@@H](NC(=O)c2cc(C4CC4)on2)C3)CC1 [compound 785, 5-cyclopropyl-N-((1R,3r,5S)-8-(((1-ethylpiperidin-4-yl)methyl)sulfonyl)-8-azabicyclo[3.2.1]octan-3-yl)isoxazole-3-carboxamide] | 44.1 nM | 1.36 nM
CN[C@H]1CC[C@H](S(=O)(=O)N2[C@@H]3CC[C@H]2C[C@@H](NC(=O)c2cc(C4CC4)on2)C3)CC1 [compound 786, 5-cyclopropyl-N-((1R,3R,5S)-8-(((1r,4R)-4-(methylamino)cyclohexyl)sulfonyl)-8-azabicyclo[3.2.1]octan-3-yl)isoxazole-3-carboxamide] | 35.8 nM | 1.37 nM
CC(C)N1CCC(CS(=O)(=O)N2[C@@H]3CC[C@H]2C[C@@H](NC(=O)c2cc(C4CC4)on2)C3)CC1 [compound 787, 5-cyclopropyl-N-((1R,3r,5S)-8-(((1-isopropylpiperidin-4-yl)methyl)sulfonyl)-8-azabicyclo[3.2.1]octan-3-yl)isoxazole-3-carboxamide] | 38.6 nM | 1.38 nM
